Measured values: PMC6662706, “Short amylin receptor antagonist peptides improve memory deficits in Alzheimer’s disease mouse model” (Scientific Reports, 2019)
No end group written: not given here.

Columns and labels:
[1] = test system: hippocampal LTP (CA1); assay: Hippocampal LTP in slices from 8 month old TgCRND8 mice; parameters: species or system mouse; conditions: n = 6 recordings
Experimental: We examined whether the peptide fragments were capable of influencing Aβ- or hAmylin-induced reduction of hippocampal LTP in mice. Exposure of hippocampal slices from wild-type mice to hAmylin (50 nM) or Aβ (50 nM) depressed LTP induced by a weak tetanization protocol at the CA1 region as previously reported[20],[30]. To determine whether peptides affected hAmylin or Aβ- induced depression of LTP, we applied 250 nM R5 or R14 continuously for 5 min prior to exposure of the hippocampal slices to 50 nM hAmylin or Aβ and the subsequent LTP induction. […] We therefore sought to determine whether peptide fragments were also capable of improving LTP levels in the same TgCRND8 AD mouse model. […] Importantly, doses of the short peptide fragments used in these experiments were equimolar to those used for AC253 and pramlintide in our previous studies[20],[30].
For electrophysiology experiment, hippocampal slices (400-μm thick) were prepared using a vibratome from wild type and TgCRND8 mice (8 month of age, male or female). […]
Brains were quickly removed from mice following decapitation, placed in a cold artificial cerebral spinal fluid (aCSF) on a vibratome chamber, and transverse sections cut through the hippocampus. […] Before 3-TBS or drug application, the responses were monitored for at least 10 min to ensure a stable baseline of fEPSP. […]

[2] = Brain uptake of R5 compared with davalintide, wild-type and het CTR mice; format: in vivo, mouse; conditions: mouse, not told, ip
Experimental: For peptide R5 brain uptake in comparison to Davlintide, wild-type littermate (C57BL/6 background) mice and heterozygous CTR knockdown mice (50% CTR expression level compared to wild type control mice and presumably with 50% AMY receptor expression level) was used (n=5 in each group). Mouse brains were extracted after 2h from a single injection and fluorescence in brains was quantified as mentioned above.
Supplementary Figure S3: The comparison of brain permeability for R5 and Davalintide.

[3] = test system: 5XFAD mice; assay: Brain amyloid pathology and neuroinflammation markers in 5XFAD mice (thioflavin-S, Western blot); format: in vivo, mouse
Source text: We initiated treatment of 5XFAD and wild-type control mice at 6 month age at a time point when they had also developed very significant amyloid burden in addition to the spatial memory deficits noted above (Fig. 4A). […] There was significant reduction in the amyloid plaque numbers, and the overall amyloid burden (as judged by the area covered by plaques) in these brain regions in the peptide treated mice (Fig. 5B, p < 0.05). […] (Fig. 5C,D, p < 0.05).
After completion of treatments, the mouse brains were harvested and the right hemisphere was frozen for biochemical analysis (Western blot, ELISA), and the left hemisphere was fixed with PAF for further processed. The thicker brain sections were stained thioflavin-S for detecting Aβ plaques.
After completion of treatments, all mice were sacrificed with an overdose of isoflourane anesthetic, perfused transcardially with saline using a pump, and the brains were harvested. The right hemisphere was frozen for biochemical analysis (Western blot, ELISA), and the left hemisphere was fixed with PAF for 24 h at 4 C. These brain tissues were further processed with modified CLARITY protocol (http://www.chunglabresources.com/clarity/). Briefly, the fixed brain tissue was transferred to hydrogel monomer solution (4% acrylamide in PBS) at 4 C for 24 h, and subsequently to a 24-well plate, merged in fresh hydrogel solution and the tissue brought to 37 C till formation of the gel. Thick sagittal slices (400 μm) were cut on an HR2 Slicer (Sigman Electronic, Germany). The thicker brain sections were cleared with 8% SDS in PBS for 24 h, followed by 0.3% Triton X-100 in PBS for 24 h. Blocking the section in 2%BSA-10% goat serum for 4h. A modified thioflavin-S staining was used for detecting Aβ plaques. […] Images were visualized using fluorescence microscopy (Axioplan-2, Carl Zeiss Ltd). Amyloid plaque size and area were analyzed with Image J software.
Frozen brain tissues or cultured cells were homogenized in cold RIPA buffer with protease inhibitors and proteins were quantified with BCA assay (BioRad, Mississauga, ON, Canada). […]

[4] = 5 weeks ip, normalized to β-actin, n = 6, p < 0.05

In the case of SQELHRLQTYPR-NH2 [R5], the “effect on chronically depressed LTP in TgCRND8 slices” value [1] is reported as “significant increase in LTP”, the “brain permeability, R5 versus davalintide” value [2] is reported as “greater brain permeability” and the “amyloid proteins (Aβ, 6E10) in cortical tissue, Western blot, versus normal saline” value [3, 4] is reported as “significantly reduced”. The “neuroinflammation markers CD68, NLPR3 and caspase-1, Western blot” value [3, 4] was “significantly attenuated” and the “amyloid pathology in the cortex, hippocampus and thalamus versus saline” value ([3]; ip three times a week for 5 weeks, thioflavin-S) was “significantly reduced amyloid pathology”.
